The supplement of paper PMC13380429

What was measured:
Settings in all cases: 72 h
Caco-2 [1] = assay: cell viability relative to DMSO; higher = less toxic
HepG2 [2] = assay: as above
U2OS [3] = assay: as above
Vero E6 [4] = assay: as above
Caco-2 [5] = assay: relative viability EC50 (midpoint between 100% and the lowest measured viability); higher = less toxic
HepG2 [6] = assay: as above
U2OS [7] = assay: as above
Vero E6 [8] = assay: as above
Caco-2 [9] = assay: drug sensitivity score (DSS) for viability; higher = more toxic; extreme values may be limits of the assay
HepG2 [10] = assay: as above
U2OS [11] = assay: as above
Vero E6 [12] = assay: as above
Calu-3 [13] = assay: cell viability relative to DMSO; higher = less toxic
Calu-3 [14] = assay: relative viability EC50 (midpoint between 100% and the lowest measured viability); higher = less toxic
Calu-3 [15] = assay: drug sensitivity score (DSS) for viability; higher = more toxic; extreme values may be limits of the assay

Compound	cell viability (Caco-2 [1]; 1 nM)	cell viability (Caco-2 [1]; 10 nM)	cell viability (Caco-2 [1]; 100 nM)	cell viability (Caco-2 [1]; 1000 nM)	cell viability (Caco-2 [1]; 10000 nM)	cell viability (HepG2 [2]; 1 nM)	cell viability (HepG2 [2]; 10 nM)	cell viability (HepG2 [2]; 100 nM)	cell viability (HepG2 [2]; 1000 nM)	cell viability (HepG2 [2]; 10000 nM)	cell viability (U2OS [3]; 1 nM)	cell viability (U2OS [3]; 10 nM)	cell viability (U2OS [3]; 100 nM)	cell viability (U2OS [3]; 1000 nM)	cell viability (U2OS [3]; 10000 nM)	cell viability (Vero E6 [4]; 1 nM)	cell viability (Vero E6 [4]; 10 nM)	cell viability (Vero E6 [4]; 100 nM)	cell viability (Vero E6 [4]; 1000 nM)	cell viability (Vero E6 [4]; 10000 nM)	relative viability EC50 (Caco-2 [5])	relative viability EC50 (HepG2 [6])	relative viability EC50 (U2OS [7])	relative viability EC50 (Vero E6 [8])	drug sensitivity score (Caco-2 [9])	drug sensitivity score (HepG2 [10])	drug sensitivity score (U2OS [11])	drug sensitivity score (Vero E6 [12])	cell viability (Calu-3 [13]; 1 nM)	cell viability (Calu-3 [13]; 10 nM)	cell viability (Calu-3 [13]; 100 nM)	cell viability (Calu-3 [13]; 1000 nM)	cell viability (Calu-3 [13]; 10000 nM)	relative viability EC50 (Calu-3 [14])	drug sensitivity score (Calu-3 [15])
CN1CCN(c2cc(-c3ccccc3)nc(N)n2)CC1	92.8%	99%	95.1%	91.8%	93%	87.5%	105%	87.8%	95.6%	116%	96.8%	98.3%	97.6%	98%	102%	98.9%	95.4%	90.5%	94.8%	103%	> 10 µM	> 10 µM	> 10 µM	> 10 µM	0	0	0	0	–	–	–	–	–	–	–
CNS(=O)(=O)Nc1nccc(Cc2c(C)c3ccc(Oc4ncccn4)cc3oc2=O)c1F	99.8%	89.4%	82.9%	73.4%	62.5%	101%	91.8%	38.3%	23.8%	13.8%	98.2%	97.9%	94.3%	85.7%	70.8%	94.6%	92.9%	75.4%	57%	50.3%	–	0.0515 µM	–	–	6.7	23.5	2.5	10.9	105%	96%	70.8%	50.1%	40.8%	0.116 µM	13.1
COc1ccc2nc3ccc(Cl)cc3c(SCCCN)c2c1	94.9%	99.7%	93.9%	93.5%	99.2%	98.6%	106%	98.8%	106%	101%	98.8%	101%	98.4%	104%	98.8%	99.7%	93.7%	93.4%	93.2%	109%	> 10 µM	> 10 µM	> 10 µM	> 10 µM	0	0	0	0	–	–	–	–	–	–	–
Cc1ccc2nc(NCCN)c3ncc(C)n3c2c1	95.8%	95.9%	95.8%	102%	66%	111%	100%	86.6%	79.6%	3.6%	95.2%	96.1%	94.6%	98.7%	28.4%	102%	92.6%	94.5%	90.3%	44%	–	1.69 µM	3.04 µM	1.86 µM	1.4	8.6	4.1	4.6	91.9%	93%	89.4%	102%	70.2%	–	1.2
OCCCNc1cc(-c2ccnc(Nc3cccc(Cl)c3)n2)ccn1	95.9%	97.1%	91.6%	26.1%	31.8%	93.6%	111%	93%	7.7%	5.6%	101%	95%	90.9%	5.8%	13%	94.5%	108%	81.9%	5.3%	15.6%	0.223 µM	0.266 µM	0.237 µM	0.178 µM	14.9	17.9	18.5	20.1	–	–	–	–	–	–	–
N=C(N)NC(=N)Nc1ccccc1 [1-phenylbiguanide]	96.3%	94.8%	95.5%	92.4%	98.8%	97.3%	106%	103%	109%	101%	99.3%	97.7%	103%	101%	100%	100%	93.4%	94.8%	99.4%	101%	> 10 µM	> 10 µM	> 10 µM	> 10 µM	0	0	0	0	–	–	–	–	–	–	–
Brc1c(Br)c(Br)c2[nH]nnc2c1Br [4,5,6,7-tetrabromobenzotriazole]	93.8%	107%	90.4%	95.7%	99.2%	117%	93.9%	102%	93.3%	107%	97.2%	98%	97.9%	100%	99.2%	105%	103%	101%	99.4%	103%	> 10 µM	> 10 µM	> 10 µM	> 10 µM	0	0	0	0	–	–	–	–	–	–	–
Nc1nc(O)c2nc(Br)n([C@@H]3O[C@@H]4COP(=O)(O)O[C@H]4[C@H]3O)c2n1 [8-bromo-cGMP]	–	–	–	–	–	101%	103%	94.6%	110%	108%	–	–	–	–	–	–	–	–	–	–	–	> 10 µM	–	–	–	0	–	–	105%	94.3%	107%	90.5%	113%	> 10 µM	0
COc1cc2c(cc1OC(C)C)[C@H](c1ccc(Cl)cc1)N(c1ccc(N(C)C[C@H]3CC[C@H](N4CCN(C)C(=O)C4)CC3)cc1)C(=O)C2 [CGM097]	96.6%	105%	93.6%	98.8%	85.9%	104%	109%	100%	75.2%	26.1%	98.1%	104%	94.7%	94.6%	44.8%	102%	105%	95.1%	83.3%	46.9%	> 10 µM	1.31 µM	2.36 µM	1.45 µM	0.3	7.6	3.8	5	–	–	–	–	–	–	–
Cc1nc(N)sc1-c1ccnc(Nc2ccc(N3CCOCC3)cc2)n1 [CYC116]	99.3%	87.4%	98.8%	87.7%	75.1%	97.9%	106%	97.9%	77.8%	28.4%	104%	102%	103%	89.6%	53.7%	100%	103%	99%	80.8%	51.6%	> 10 µM	1.38 µM	–	–	1.7	7.2	4.1	5.1	104%	109%	101%	105%	75.5%	> 10 µM	0.7
CC(=O)[C@@]1(O)CC[C@H]2[C@@H]3C=C(Cl)C4=CC(=O)[C@@H]5C[C@@H]5[C@]4(C)[C@H]3CC[C@@]21C [CYPROTERONE]	106%	89.5%	112%	102%	95%	–	–	–	–	–	–	–	–	–	–	101%	107%	99.5%	104%	94.9%	> 10 µM	–	–	> 10 µM	0	–	–	0	99.5%	101%	103%	86.6%	97.4%	> 10 µM	0
COC(=O)[C@H](CC(C)C)NC(=O)c1ccc(NC[C@@H](N)CS)cc1-c1cccc2ccccc12 [GGTI-298]	92.3%	100%	95.2%	98.8%	75.9%	90.4%	106%	101%	93.8%	100%	95.3%	97.4%	92.7%	94.3%	60.9%	105%	110%	104%	86.3%	92.7%	> 10 µM	> 10 µM	–	> 10 µM	1	0	2.9	0.9	93.1%	104%	88.8%	100%	93.7%	> 10 µM	0
O=C(CCCCCCCn1cc(-c2cccnc2)nn1)Nc1ccccc1-c1ccccc1 [GPP-78]	109%	97.9%	106%	4%	3.6%	96.6%	92%	103%	25.4%	18.8%	101%	99.7%	110%	0.2%	0.1%	99.2%	103%	8.7%	2.1%	2.7%	0.352 µM	0.415 µM	0.365 µM	0.0395 µM	16.8	13.6	17.2	28.7	–	–	–	–	–	–	–
COc1ccc(-n2c(SCc3nc(-c4ccc(C)cc4)no3)nnc2-c2ccncc2)cc1 [JW-74]	111%	114%	110%	100%	86.9%	99.7%	101%	96.2%	95.3%	93.3%	96.4%	98.3%	97%	96%	81.4%	108%	105%	107%	88.7%	68.2%	> 10 µM	> 10 µM	> 10 µM	–	0.1	0	1	3	95.1%	106%	109%	107%	70.8%	–	0.9
O=C(CBr)N1CC([N+](=O)[O-])([N+](=O)[O-])C1 [RRx-001]	105%	98.3%	113%	104%	105%	102%	114%	109%	106%	94.8%	–	–	–	–	–	106%	106%	99.6%	102%	102%	> 10 µM	> 10 µM	–	> 10 µM	0	0	–	0	101%	91.6%	116%	100%	100%	> 10 µM	0
CN(C)CCCC(=O)Nc1ccc(C(=O)Nc2cccc(Nc3ncc(Cl)c(-c4c[nH]c5ccccc45)n3)c2)cc1 [THZ1-R]	92.2%	98.6%	94.5%	100%	77.9%	96%	91.4%	107%	65.7%	9.4%	96.2%	104%	97.6%	102%	65.1%	95.6%	98%	96.9%	93.4%	105%	> 10 µM	1.22 µM	–	> 10 µM	0.7	9.7	1.5	0	97.6%	103%	106%	94.8%	79.7%	> 10 µM	1.3
